Measurements published in patent US6287813A, “Antibiotic-based gene regulation system” (Cistronics Cell Technology GmbH, priority 1999, dated 2001).

Target: T1, PIT3/PPIR ON (Streptomyces coelicolor, UniProt Q9ADN3)
T1 construct: pMF207 with pMF208 in CHO-K1
T1 sequence (Q9ADN3 1-252): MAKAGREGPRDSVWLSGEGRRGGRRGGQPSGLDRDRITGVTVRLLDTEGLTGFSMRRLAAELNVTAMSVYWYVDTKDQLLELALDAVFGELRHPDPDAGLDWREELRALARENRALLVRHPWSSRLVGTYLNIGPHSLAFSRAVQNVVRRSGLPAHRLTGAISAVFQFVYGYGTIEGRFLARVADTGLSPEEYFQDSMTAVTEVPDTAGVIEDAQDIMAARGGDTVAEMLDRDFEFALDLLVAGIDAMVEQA
Test: PipON SEAP assay, CHO-K1 cotransfected with pMF208 (PPIR ON-SEAP) and pMF207 (PIT3; Pip-KRAB)
Assay type: cell-based
Description: The Classical PIT/PPIR system belongs to the "OFF" family of regulation concepts since gene expression is activated upon withdrawal of the regulating antibiotic. However, in some applications such as gene therapy and tissue engineering an "ON" system which is induced upon addition of streptogramin antibiotics is more desirable. We therefore constructed a new Pip-based binary PION system which consists of a PPIR ON promoter and a set of two different transrepressors. PPIR ON consists of a PIR3 module containing 3 consecutive Pip binding elements (SEQ ID NO:21; Example 3) placed in front of the strong viral SV40 promoter. Transrepressors such as PIT3, which consists of a protein fusion between Pip and the KRAB silencing domain of the human kox-1 gene (Deuschle et al., 1995, Mol. Cell Biol. 15: 1907-1914) and PIT4, which is simply Pip expressed in a eukaryotic configuration, bind to PIR3 in front of PSV40 and block transcription of this promoter. Besides sterical transcription blocking the silencing domain of PIT3 can additionally downregulate PSV40 activity. […]
Table 9: Comparison of the regulation characteristics of the PipON systems. CHO-K1 cells were simultaneously cotransfected with the plasmids indicated and the SEAP readout (slope a of the p-nitrophenolphosphate-based light absorbance time courses) was determined in the presence and absence of pristinamycin 48 hr post transfection. […]

## pristinamycin I [PI]
+PI (2 μg/ml) column, CHO + pMF208 + pMF207, 48 hr post transfection
  SEAP readout (slope of the p-nitrophenolphosphate-based light absorbance time courses): 0.00055 ± 0.0003
PIT3-PPIR ON configuration, 2880 min
  Induction factor: about 150
